Where a name gives a salt, the structure may show the parent alone.
Assays:
[1] = biological target: Sodium-dependent serotonin transporter (Rattus norvegicus, UniProt P31652); parameters: species or system Sprague-Dawley;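 further: radioligand competition using [3H]citalopram bound to serotonin transporter in Sprague-Dawley rat brain tissue, 1 h incubation, bound radioactivity quantified by liquid scintillation counting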
Description: Displacement of [3H]citalopram from serotonin transporter in Sprague-Dawley rat brain after 1 hr by liquid scintillation counting

[2] = biological target: Sodium-dependent dopamine transporter (Rattus norvegicus, UniProt P23977); test: biochemical; assay type: tissue-based, Sprague-Dawley, Brain
Sodium-dependent dopamine transporter, sequence (P23977 whole entry): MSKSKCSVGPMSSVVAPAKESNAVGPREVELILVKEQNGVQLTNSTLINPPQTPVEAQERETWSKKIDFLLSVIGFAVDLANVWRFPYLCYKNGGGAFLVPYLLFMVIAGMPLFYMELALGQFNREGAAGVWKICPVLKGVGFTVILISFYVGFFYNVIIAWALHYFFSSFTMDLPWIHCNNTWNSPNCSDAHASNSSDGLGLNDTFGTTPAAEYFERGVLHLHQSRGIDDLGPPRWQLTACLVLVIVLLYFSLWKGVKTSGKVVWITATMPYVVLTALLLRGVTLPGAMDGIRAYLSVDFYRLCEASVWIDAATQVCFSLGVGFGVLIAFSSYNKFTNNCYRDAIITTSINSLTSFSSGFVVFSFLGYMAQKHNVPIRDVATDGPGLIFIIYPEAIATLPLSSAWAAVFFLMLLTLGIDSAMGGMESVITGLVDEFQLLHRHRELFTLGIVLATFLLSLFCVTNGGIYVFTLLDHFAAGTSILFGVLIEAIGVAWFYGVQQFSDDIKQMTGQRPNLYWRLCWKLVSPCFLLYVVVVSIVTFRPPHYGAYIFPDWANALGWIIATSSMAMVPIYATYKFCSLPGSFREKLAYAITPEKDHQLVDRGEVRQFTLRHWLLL

Transporter = Transporter (Rattus norvegicus, UniProt Q63380); test: biochemical; assay type: tissue-based, Sprague-Dawley, Frontal cortex
Transporter, sequence (Q63380 whole entry): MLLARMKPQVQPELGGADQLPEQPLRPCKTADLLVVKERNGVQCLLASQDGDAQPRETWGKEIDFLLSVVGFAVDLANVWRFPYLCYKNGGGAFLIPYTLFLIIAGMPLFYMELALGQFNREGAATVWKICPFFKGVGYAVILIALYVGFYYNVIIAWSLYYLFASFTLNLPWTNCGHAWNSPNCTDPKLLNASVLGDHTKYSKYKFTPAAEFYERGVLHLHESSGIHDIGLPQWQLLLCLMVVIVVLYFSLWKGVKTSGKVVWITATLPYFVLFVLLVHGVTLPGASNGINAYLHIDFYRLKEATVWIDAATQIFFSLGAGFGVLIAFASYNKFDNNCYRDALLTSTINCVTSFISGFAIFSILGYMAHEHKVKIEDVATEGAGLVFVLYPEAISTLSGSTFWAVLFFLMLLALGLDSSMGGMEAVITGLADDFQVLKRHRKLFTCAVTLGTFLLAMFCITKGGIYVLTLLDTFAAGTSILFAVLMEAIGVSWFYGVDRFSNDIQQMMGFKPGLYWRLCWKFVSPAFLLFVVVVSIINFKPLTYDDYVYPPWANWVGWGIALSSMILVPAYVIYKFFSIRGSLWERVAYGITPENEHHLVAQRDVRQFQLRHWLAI
Description: Displacement of [3H]nisoxetine from norepinephrine transporter in Sprague-Dawley rat frontal cortex after 1 hr by liquid scintillation counting

Sodium-dependent serotonin transporter, sequence (P31652 whole entry): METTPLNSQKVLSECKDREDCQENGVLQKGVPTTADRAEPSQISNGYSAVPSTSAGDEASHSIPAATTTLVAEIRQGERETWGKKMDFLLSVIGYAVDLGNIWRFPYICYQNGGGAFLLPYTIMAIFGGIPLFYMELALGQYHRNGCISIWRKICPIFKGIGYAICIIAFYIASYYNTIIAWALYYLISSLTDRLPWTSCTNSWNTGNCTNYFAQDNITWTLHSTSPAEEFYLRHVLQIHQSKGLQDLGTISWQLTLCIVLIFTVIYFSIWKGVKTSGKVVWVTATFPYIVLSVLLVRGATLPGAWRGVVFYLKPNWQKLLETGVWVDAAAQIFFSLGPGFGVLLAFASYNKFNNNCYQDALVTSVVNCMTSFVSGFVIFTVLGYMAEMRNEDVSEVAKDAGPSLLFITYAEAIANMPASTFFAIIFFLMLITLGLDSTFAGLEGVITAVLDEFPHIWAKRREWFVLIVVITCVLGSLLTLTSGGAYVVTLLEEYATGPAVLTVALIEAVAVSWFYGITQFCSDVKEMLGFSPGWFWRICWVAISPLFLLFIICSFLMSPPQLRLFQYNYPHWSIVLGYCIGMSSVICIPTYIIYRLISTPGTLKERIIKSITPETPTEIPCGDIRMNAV

SMILES | Ki [1] | Ki [2] | Ki (Transporter)
CCOC(=O)C1(c2ccc3ccccc3c2)CCNCC1 | 14.1 nM | 710 nM | 
O=C(OCc1ccc(C(F)(F)F)cc1)C1(c2ccc(Cl)c(Cl)c2)CCNCC1 | 46.7 nM | 2240 nM | 7900 nM
O=C(OCc1ccc([N+](=O)[O-])cc1)C1(c2ccc(Cl)c(Cl)c2)CCNCC1 | 6.4 nM | 1300 nM | 1440 nM
CCOC(=O)C1(c2ccc(Cl)c(Cl)c2)CCNCC1 | 21.6 nM | 321 nM | 
COc1ccc(COC(=O)C2(c3ccc(I)cc3)CCNCC2)cc1 | 0.6 nM | 2920 nM | 2730 nM
CN1CCC(C(=O)OCc2ccccc2)(c2ccc(Cl)c(Cl)c2)CC1 | 3.9 nM | 2970 nM | 901 nM
O=C(OCc1ccccc1)C1(c2ccc(-c3ccccc3)cc2)CCNCC1 | 2 nM | 1110 nM | 
O=C(OCc1ccc(Cl)c(Cl)c1)C1(c2ccc(Cl)c(Cl)c2)CCNCC1 | 30.2 nM | 2890 nM | 11900 nM
COc1ccc(COC(=O)C2(c3ccc(Cl)c(Cl)c3)CCN(C)CC2)cc1 | 1.7 nM | 2790 nM | 300 nM
CN1CCC(C(=O)OCc2ccc(Br)cc2)(c2ccc(Cl)c(Cl)c2)CC1 | 7 nM | 2560 nM | 580 nM
O=C(OCc1ccc([N+](=O)[O-])cc1)C1(c2ccc(I)cc2)CCNCC1 | 5.9 nM | 1780 nM | 2070 nM
O=C(OCc1ccc([N+](=O)[O-])cc1)C1(c2ccc3ccccc3c2)CCNCC1 | 2 nM | 732 nM | 937 nM
CCOC(=O)C1(c2ccc(I)cc2)CCNCC1 | 2.5 nM | 3500 nM | 
CCOC(=O)C1(c2ccc(-c3ccccc3)cc2)CCNCC1 | 3.3 nM | 3210 nM | 
COc1ccc(COC(=O)C2(c3ccc(Cl)c(Cl)c3)CCNCC2)cc1 | 10.2 nM | 1260 nM | 3130 nM
CN1CCC(C(=O)OCc2ccc(I)cc2)(c2ccc(Cl)c(Cl)c2)CC1 | 13.2 nM | 3470 nM | 
CN1CCC(C(=O)OCc2ccccc2)(c2ccc(-c3ccccc3)cc2)CC1 | 49.5 nM | 2310 nM | 
CN1CCC(C(=O)OCc2ccc([N+](=O)[O-])cc2)(c2ccc(Cl)c(Cl)c2)CC1 | 1 nM | 1530 nM | 333 nM
O=C(OCc1ccccc1)C1(c2ccc(Cl)c(Cl)c2)CCNCC1 | 9.2 nM | 919 nM | 
Fc1ccc([C@@H]2CCNC[C@H]2COc2ccc3c(c2)OCO3)cc1 [PAROXETINE HYDROCHLORIDE] |  |  | 59 nM
O=C(OCc1ccc(Cl)c(Cl)c1)C1(c2ccc3ccccc3c2)CCNCC1 | 26.5 nM | 3210 nM | 16600 nM
CN1CCC(C(=O)OCc2ccc(Cl)c(Cl)c2)(c2ccc(Cl)c(Cl)c2)CC1 | 4.3 nM | 5230 nM | 
O=C(OCc1ccc(Cl)c(Cl)c1)C1(c2ccc(I)cc2)CCNCC1 | 5.9 nM | 4340 nM | 6060 nM
CCOC(=O)C1(c2ccc(I)cc2)CCN(C)CC1 |  |  | 519000 nM
CCOC(=O)C1(c2ccc3ccccc3c2)CCN(C)CC1 |  |  | 71000 nM
CN1CCC(C(=O)OCc2ccc3ccccc3c2)(c2ccc(Cl)c(Cl)c2)CC1 | 9.9 nM | 4910 nM | 2550 nM
CN1CCC(C(=O)OCc2ccc(-c3ccccc3)cc2)(c2ccc(Cl)c(Cl)c2)CC1 | 10.9 nM | 5630 nM | 
COc1ccc(COC(=O)C2(c3ccc4ccccc4c3)CCNCC2)cc1 | 2.9 nM | 889 nM | 2350 nM

— ChEMBL document CHEMBL1287706 (Bioorg Med Chem, 2010)
